From patent US9962369B2, “Methods and compositions for transdermal delivery” (SPRAYABLE HOLDINGS, INC., priority 2014, dated 2018)

Test: Transdermal delivery of melatonin: plasma level of melatonin after applying composition to skin of a subject
Conditions: human, plasma, topical, 3 mg, Plasma level of melatonin; for concentration at 4 h / concentration at 4 hr: 4 hr after transdermal administration; for concentration at 8 h / concentration at 8 hr: 8 hr after transdermal administration; for concentration at 0 h / concentration at 0 hr: 0 hr after transdermal administration; for concentration at 1 h / concentration at 1 hr: 1 hr after transdermal administration; for concentration at 2 h / concentration at 2 hr: 2 hr after transdermal administration; for concentration at 0 hr / concentration at 1 hr / concentration at 2 hr / concentration at 4 hr / concentration at 8 hr: 0.30 mL applied to skin
[1] = Table 20 control, A− N/A, helper esters 0 mM, 2.0 mL applied
[2] = Tryptophan butyl ester hydrochloride 235.90 mM, 0.3 mL applied to skin
[3] = Tryptophan ethyl ester hydrochloride 260.47 mM, 0.3 mL applied to skin
[4] = Tryptophan isopropyl ester hydrochloride 247.52 mM, 0.3 mL applied to skin
[5] = Tyrosine isopropyl ester 269.50 mM
[6] = Tyrosine pentyl ester 243.25 mM
[7] = salt of tryptophan isopropyl ester, A− = AcO^−, 228.48 mM, 0.30 mL applied
[8] = salt of tryptophan isopropyl ester, A− = Benzoate ion, 189.98 mM, 0.30 mL applied
[9] = salt of tryptophan isopropyl ester, A− = Br^−, 220.92 mM, 0.30 mL applied
[10] = salt of tryptophan isopropyl ester, A− = Citrate ion, 159.67 mM, 0.30 mL applied

- concentration at 4 h [1]: 0.1 ng/mL
- concentration at 8 h [1]: 0.1 ng/mL
- concentration at 0 h [2]: 0 ng/mL
- concentration at 1 h [2]: 1.8 ng/mL
- concentration at 2 h [2]: 1.9 ng/mL
- concentration at 4 h [2]: 1.7 ng/mL
- concentration at 8 h [2]: 1.7 ng/mL
- concentration at 0 h [3]: 0 ng/mL
- concentration at 1 h [3]: 2 ng/mL
- concentration at 2 h [3]: 2.2 ng/mL
- concentration at 4 h [3]: 1.9 ng/mL
- concentration at 8 h [3]: 1.8 ng/mL
- concentration at 2 h [4]: 2.8 ng/mL
- concentration at 4 h [4]: 2.7 ng/mL
- concentration at 8 h [4]: 2.5 ng/mL
- concentration at 0 hr [5]: 0 ng/mL
- concentration at 1 hr [5]: 2.1 ng/mL
- concentration at 2 hr [5]: 2.9 ng/mL
- concentration at 4 hr [5]: 2.7 ng/mL
- concentration at 8 hr [5]: 2.8 ng/mL
- concentration at 0 hr [6]: 0 ng/mL
- concentration at 1 hr [6]: 1.8 ng/mL
- concentration at 2 hr [6]: 2.1 ng/mL
- concentration at 4 hr [6]: 2.2 ng/mL
- concentration at 8 hr [6]: 2.1 ng/mL
- concentration at 0 hr (Tyrosine propyl ester 269.5 mM): 0 ng/mL
- concentration at 1 hr (Tyrosine propyl ester 269.5 mM): 2 ng/mL
- concentration at 2 hr (Tyrosine propyl ester 269.5 mM): 2.5 ng/mL
- concentration at 4 hr (Tyrosine propyl ester 269.5 mM): 2.6 ng/mL
- concentration at 8 hr (Tyrosine propyl ester 269.5 mM): 2.6 ng/mL
- concentration at 0 h [7]: 0 ng/mL
- concentration at 1 h [7]: 1.9 ng/mL
- concentration at 2 h [7]: 2.2 ng/mL
- concentration at 4 h [7]: 2.1 ng/mL
- concentration at 8 h [7]: 2 ng/mL
- concentration at 0 h [8]: 0 ng/mL
- concentration at 1 h [8]: 1.8 ng/mL
- concentration at 2 h [8]: 1.8 ng/mL
- concentration at 4 h [8]: 2 ng/mL
- concentration at 8 h [8]: 1.7 ng/mL
- concentration at 0 h [9]: 0 ng/mL
- concentration at 1 h [9]: 2.4 ng/mL
- concentration at 2 h [9]: 2.9 ng/mL
- concentration at 4 h [9]: 2.6 ng/mL
- concentration at 8 h [9]: 2.6 ng/mL
- concentration at 0 h [10]: 0 ng/mL
- concentration at 1 h [10]: 2.1 ng/mL
- concentration at 2 h [10]: 2.3 ng/mL
- concentration at 4 h [10]: 2.4 ng/mL
- concentration at 8 h [10]: 2.1 ng/mL
- concentration at 0 h (salt of tryptophan isopropyl ester, A− = Cl^−, 247.52 mM, 0.30 mL applied): 0 ng/mL
Structure (SMILES): COc1ccc2[nH]cc(CCNC(C)=O)c2c1 [Melatonin]
